Measurements: ChEMBL document CHEMBL5528088, “Design and Synthesis of Cyclolipopeptide Mimics of Dysoxylactam A and Evaluation of the Reversing Potencies against P-Glycoprotein-Mediated Multidrug Resistance” (J Med Chem, 2024)
pIC50: −log10 of the molar value. Values after ≈ are worked out from the molar mass of the structure shown. Where a name gives a salt, the structure may show the parent alone. Active and inactive are the calls of the source. The calls are words filed in the database; no cut-off is given here.

Assays:
[1] = Inhibition of ADR uptake in human KBv200 cells assessed as ADR accumulation at 1 uM incubated for 10 mins by flow cytometry (reference value: 6.2 %); type: functional; set-up: scale not given: the % may be the effect or the level left
[2] = Tmax in Sprague-Dawley rat at 30 mg/kg, po measured for 24 hrs by LC-MS analysis; type: ADME, organism-based; details: in vivo
[3] = AUClast in Sprague-Dawley rat at 1 mg/kg, iv measured for 24 hrs by LC-MS analysis; type: ADME, organism-based; details: in vivo
NCI/ADR-RES [4] = assay: Reversal fold, ratio of VNR IC50 to VNR IC50 in presence of test compound for reversal effect on P-gp-mediated multidrug resistance in human NCI/ADR-RES cells incubated for 72 hrs by SRB assay; type: functional
KBv200 [5] = assay: Reversal fold, ratio of PTX IC50 to PTX IC50 in presence of test compound for reversal effect on P-gp-mediated multidrug resistance in human KBv200 cells incubated for 72 hrs by SRB assay; type: functional
[6] = Lipophilicity, logD of compound at pH 7.4; type: physicochemical; details: buffer
[7] = MRT (infinity) in Sprague-Dawley rat at 30 mg/kg, po measured for 24 hrs by LC-MS analysis; type: ADME, organism-based; details: in vivo
[8] = AUC (infinity) in Sprague-Dawley rat at 1 mg/kg, iv measured for 24 hrs by LC-MS analysis; type: ADME, organism-based; details: in vivo
KBv200 [9] = assay: Reversal fold, ratio of VNR IC50 to VNR IC50 in presence of test compound for reversal effect on P-gp-mediated multidrug resistance in human KBv200 cells incubated for 72 hrs by SRB assay; type: functional
NCI/ADR-RES [10] = assay: Reversal fold, ratio of ADR IC50 to ADR IC50 in presence of test compound for reversal effect on P-gp-mediated multidrug resistance in human NCI/ADR-RES cells incubated for 72 hrs by SRB assay; type: functional
KBv200 [11] = assay: Inhibition of ADR uptake in human KBv200 cells at 10 uM incubated for 10 mins by fluorescence microscopy; type: functional, cell-based
[12] = Inhibition of ADR efflux in human KBv200 cells assessed as ADR accumulation at 1 uM incubated for 3 hrs by flow cytometry (reference value: 25.7 %); type: functional; set-up: scale not given: the % may be the effect or the level left
KBv200 [13] = assay: Antitumor activity against human KBv200 cells xenografted in Balb/cA nude mouse assessed as decrease in tumor weight at 75 mg/kg, ip administered upto day 8 and measured for 14 days in presence of VNR; type: functional, organism-based; details: time 14.0 day
[14] = target: Multidrug resistance-associated protein 1 (Homo sapiens, UniProt P33527); assay: Inhibition of MRP1 (unknown origin) expressed in HEK293 cells assessed as increase in mitoxantrone accumulation by flow cytometry; type: cell-based
KBv200 [15] = assay: Inhibition of ADR efflux in human KBv200 cells incubated for 3 hrs by fluorescence microscopy; type: functional, cell-based
[16] = target: T1, Broad substrate specificity ATP-binding cassette transporter ABCG2 (Homo sapiens, UniProt Q9UNQ0); assay: Inhibition of BCRP (unknown origin) expressed in HEK293 cells assessed as increase in mitoxantrone accumulation by flow cytometry; type: cell-based
T1 sequence (Q9UNQ0 whole entry): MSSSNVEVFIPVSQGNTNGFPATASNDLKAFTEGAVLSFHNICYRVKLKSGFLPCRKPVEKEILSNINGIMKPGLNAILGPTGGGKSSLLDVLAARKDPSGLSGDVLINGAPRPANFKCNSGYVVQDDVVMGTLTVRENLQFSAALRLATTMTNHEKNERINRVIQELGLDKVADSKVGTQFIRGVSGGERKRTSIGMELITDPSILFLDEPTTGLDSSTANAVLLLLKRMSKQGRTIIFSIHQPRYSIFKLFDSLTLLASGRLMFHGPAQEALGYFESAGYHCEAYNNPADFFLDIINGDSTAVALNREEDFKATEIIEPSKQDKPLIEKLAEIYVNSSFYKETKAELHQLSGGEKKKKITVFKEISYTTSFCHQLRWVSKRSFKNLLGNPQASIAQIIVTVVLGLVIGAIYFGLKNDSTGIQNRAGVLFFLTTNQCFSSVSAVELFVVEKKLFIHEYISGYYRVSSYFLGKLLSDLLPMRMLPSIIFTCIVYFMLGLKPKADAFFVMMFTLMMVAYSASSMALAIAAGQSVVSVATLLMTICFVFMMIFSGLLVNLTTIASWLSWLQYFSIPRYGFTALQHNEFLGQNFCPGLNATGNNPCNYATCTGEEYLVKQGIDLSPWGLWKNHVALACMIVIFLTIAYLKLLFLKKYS

[17] = AUC (infinity) in Sprague-Dawley rat at 30 mg/kg, po measured for 24 hrs by LC-MS analysis; type: ADME, organism-based; details: in vivo
[18] = Oral bioavailability in Sprague-Dawley rat at 30 mg/kg measured for 24 hrs by LC-MS analysis; type: ADME, organism-based; details: in vivo
KBv200 [19] = assay: Inhibition of ADR uptake in human KBv200 cells at 10 uM incubated for 10 mins by flow cytometry; type: functional, cell-based
[20] = Toxicity in Balb/cA nude mouse xenografted with human KBv200 cells assessed as animal mortality at 75 mg/kg, ip administered upto day 8 and measured for 14 days; type: organism-based; details: in vivo, 336 h, time 14 day
KBv200 [21] = assay: Cytotoxicity against human KBv200 cells at 10 uM incubated for 72 hrs by SRB assay relative to control; type: functional
[22] = MRT (infinity) in Sprague-Dawley rat at 1 mg/kg, iv measured for 24 hrs by LC-MS analysis; type: ADME, organism-based; details: in vivo
[23] = Cmax in Sprague-Dawley rat at 30 mg/kg, po measured for 24 hrs by LC-MS analysis; type: ADME, organism-based; details: in vivo
[24] = Toxicity in Balb/cA nude mouse xenografted with human KBv200 cells assessed as change in body weight at 75 mg/kg, ip administered upto day 8 and measured for 14 days; type: organism-based; details: in vivo, 336 h, time 14 day
[25] = Half life in Sprague-Dawley rat at 30 mg/kg, po measured for 24 hrs by LC-MS analysis; type: ADME, organism-based; details: in vivo
KBv200 [26] = assay: Inhibition of Rho-123 uptake in human KBv200 cells at 10 uM incubated for 10 mins by flow cytometry; type: functional, cell-based
KBv200 [27] = assay: Effect on P-gp level in human KBv200 cells at 1 to 10 uM incubated for 24 hrs by Western blot analysis; type: functional, cell-based; details: dose 1-10 µM
NCI/ADR-RES [28] = assay: Reversal fold, ratio of PTX IC50 to PTX IC50 in presence of test compound for reversal effect on P-gp-mediated multidrug resistance in human NCI/ADR-RES cells incubated for 72 hrs by SRB assay; type: functional
[29] = Half life in Sprague-Dawley rat at 1 mg/kg, iv measured for 24 hrs by LC-MS analysis; type: ADME, organism-based; details: in vivo
[30] = Aqueous solubility of compound at neutral pH; type: physicochemical
KBv200 [31] = assay: Inhibition of calcein AM uptake in human KBv200 cells at 10 uM incubated for 10 mins by flow cytometry; type: functional, cell-based
KBv200 [32] = assay: Effect on P-gp level in human KBv200 cells incubated for 24 hrs by qRT-PCR analysis; type: functional, cell-based
KBv200 [33] = assay: Reversal fold, ratio of ADR IC50 to ADR IC50 in presence of test compound for reversal effect on P-gp-mediated multidrug resistance in human KBv200 cells incubated for 72 hrs by SRB assay; type: functional
KBv200 [34] = assay: Antitumor activity against human KBv200 cells xenografted in Balb/cA nude mouse assessed as decrease in tumor volume at 75 mg/kg, ip administered upto day 8 and measured for 14 days in presence of VNR; type: functional, organism-based; details: time 14.0 day
[35] = Inhibition of ADR efflux in human KBv200 cells assessed as ADR accumulation at 10 uM incubated for 3 hrs by flow cytometry (reference value: 25.7 %); type: functional; set-up: scale not given: the % may be the effect or the level left
[36] = Volume of distribution at steady state in Sprague-Dawley rat at 1 mg/kg, iv measured for 24 hrs by LC-MS analysis; type: ADME, organism-based; details: in vivo, read-out: Vdss
[37] = AUClast in Sprague-Dawley rat at 30 mg/kg, po measured for 24 hrs by LC-MS analysis; type: ADME, organism-based; details: in vivo
KBv200 [38] = assay: Reversal fold, ratio of VNR IC50 to VNR IC50 in presence of test compound for human KBv200 cells incubated for 72 hrs by SRB assay; type: functional
NCI/ADR-RES [39] = assay: Effect on P-gp level in human NCI/ADR-RES cells at 1 to 10 uM incubated for 24 hrs by Western blot analysis; type: functional, cell-based; details: dose 1-10 µM
KBv200 [40] = assay: Antitumor activity against human KBv200 cells xenografted in Balb/cA nude mouse assessed as decrease in tumor size at 75 mg/kg, ip administered upto day 8 and measured for 14 days; type: functional, organism-based; details: time 14.0 day
[41] = Inhibition of ADR uptake in human KBv200 cells assessed as ADR accumulation at 10 uM incubated for 10 mins by flow cytometry (reference value: 6.2 %); type: functional; set-up: scale not given: the % may be the effect or the level left
KBv200 [42] = assay: Inhibition of cell proliferation in human KBv200 cells assessed as inhibition of VNR at 10 uM incubated for 72 hrs in presence of VNR by SRB assay relative to control; type: functional
KBv200 [43] = assay: Reversal effect on P-gp-mediated multidrug resistance in human KBv200 cells assessed as inhibition of cell proliferation incubated for 72 hrs by SRB assay; type: functional, cell-based; details: KBv200, 72 h
NCI/ADR-RES [44] = assay: Reversal effect on P-gp-mediated multidrug resistance in human NCI/ADR-RES cells assessed as inhibition of cell proliferation incubated for 72 hrs by SRB assay; type: functional, cell-based

Chain of Multidrug resistance-associated protein 1 (P33527 whole entry): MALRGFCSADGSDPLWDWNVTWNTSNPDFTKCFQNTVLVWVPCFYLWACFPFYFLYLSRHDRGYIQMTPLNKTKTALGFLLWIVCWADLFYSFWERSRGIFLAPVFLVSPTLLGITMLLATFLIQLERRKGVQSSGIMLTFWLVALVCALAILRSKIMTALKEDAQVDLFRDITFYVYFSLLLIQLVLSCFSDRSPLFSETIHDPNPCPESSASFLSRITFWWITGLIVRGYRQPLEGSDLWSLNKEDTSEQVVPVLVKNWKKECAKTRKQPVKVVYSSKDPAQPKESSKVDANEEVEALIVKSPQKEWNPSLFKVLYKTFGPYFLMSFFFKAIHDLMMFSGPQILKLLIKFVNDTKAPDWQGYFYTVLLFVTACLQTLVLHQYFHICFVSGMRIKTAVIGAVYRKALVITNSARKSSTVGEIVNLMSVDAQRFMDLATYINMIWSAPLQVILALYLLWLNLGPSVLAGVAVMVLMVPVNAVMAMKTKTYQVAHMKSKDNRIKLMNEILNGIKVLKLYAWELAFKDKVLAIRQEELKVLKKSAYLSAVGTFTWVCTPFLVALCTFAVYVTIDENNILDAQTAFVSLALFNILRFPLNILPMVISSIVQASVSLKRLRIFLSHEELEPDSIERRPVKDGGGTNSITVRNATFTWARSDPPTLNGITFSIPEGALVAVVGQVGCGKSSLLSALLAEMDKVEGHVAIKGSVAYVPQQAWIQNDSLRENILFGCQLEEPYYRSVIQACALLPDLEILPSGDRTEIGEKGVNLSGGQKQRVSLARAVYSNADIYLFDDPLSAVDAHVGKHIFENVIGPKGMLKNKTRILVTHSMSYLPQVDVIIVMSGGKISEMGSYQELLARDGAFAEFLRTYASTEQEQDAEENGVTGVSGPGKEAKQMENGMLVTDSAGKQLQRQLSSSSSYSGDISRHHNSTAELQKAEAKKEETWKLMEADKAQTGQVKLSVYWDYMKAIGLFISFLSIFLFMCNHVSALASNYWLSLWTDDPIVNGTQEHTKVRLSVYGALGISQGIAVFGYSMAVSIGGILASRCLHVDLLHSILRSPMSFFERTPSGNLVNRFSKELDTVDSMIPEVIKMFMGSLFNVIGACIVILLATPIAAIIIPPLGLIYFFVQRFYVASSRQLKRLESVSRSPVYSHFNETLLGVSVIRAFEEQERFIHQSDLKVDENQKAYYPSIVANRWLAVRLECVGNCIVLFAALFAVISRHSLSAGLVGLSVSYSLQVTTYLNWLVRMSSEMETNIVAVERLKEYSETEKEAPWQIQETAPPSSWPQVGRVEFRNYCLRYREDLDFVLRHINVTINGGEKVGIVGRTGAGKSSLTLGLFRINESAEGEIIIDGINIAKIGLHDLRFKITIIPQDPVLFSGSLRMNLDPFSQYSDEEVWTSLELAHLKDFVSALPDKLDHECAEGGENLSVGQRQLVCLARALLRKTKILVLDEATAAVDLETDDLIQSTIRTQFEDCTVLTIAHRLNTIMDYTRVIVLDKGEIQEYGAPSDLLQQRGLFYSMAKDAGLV

CC(C)[C@@H]1NC(=O)CCCCCCCCCCCC(=O)N[C@@H](Cc2ccccc2)COC1=O
Activity [1]: 6.6%
Tmax [2]: 0.25 h
AUC(0-t) at 24 h [3]: 1260 ng·h/mL
Ratio IC50 (NCI/ADR-RES [4]): 133.4
Ratio IC50 (KBv200 [5]): 49.6
logD [6]: 5
MRT inf [7]: 3.11 h
AUC [8]: 1263 ng·h/mL
Ratio IC50 (KBv200 [9]): 102.4
Ratio IC50 (NCI/ADR-RES [10]): 33.9
inhibition (KBv200 [11]): inactive
Activity [12]: 33.8%
Activity (KBv200 [13]): Active
inhibition (INH) [14]: Active
inhibition (KBv200 [15]): Active
inhibition (INH) [16]: Active
AUC(0-inf) [17]: 43.4 ng·h/mL
bioavailability [18]: 0.09%
inhibition (KBv200 [19]): inactive
Activity [20]: Non-Toxic
Activity (KBv200 [21]): 2.7%
MRT inf [22]: 0.75 h
Cmax [23]: 34.4 ng/mL
Activity [24]: Non-Toxic
half-life [25]: 2.38 h
inhibition (KBv200 [26]): Active
Activity (KBv200 [27]): inactive
Ratio IC50 (NCI/ADR-RES [28]): 159.9
half-life [29]: 1.09 h
solubility [30]: 0.64 µg/mL (≈ 1.4 µM)
inhibition (KBv200 [31]): Active
Activity (KBv200 [32]): inactive
Ratio IC50 (KBv200 [33]): 12.1
Activity (KBv200 [34]): Active
Activity [35]: 88.6%
Vd [36]: 1.53 L/kg
AUC(0-t) at 24 h [37]: 32.3 ng·h/mL
Ratio IC50 (KBv200 [38]): 124
Activity (NCI/ADR-RES [39]): inactive
Activity (KBv200 [40]): Active
Activity [41]: 86.4%
inhibition at 10 µM (KBv200 [42]): 96.9%

CC(=O)O[C@H]1C(=O)[C@@]2(C)[C@H]([C@H](OC(=O)c3ccccc3)[C@]3(O)C[C@H](OC(=O)[C@H](O)[C@@H](NC(=O)c4ccccc4)c4ccccc4)C(C)=C1C3(C)C)[C@]1(OC(C)=O)CO[C@@H]1C[C@@H]2O [PACLITAXEL]
pIC50 (KBv200 [43]): 6.62

COc1cccc2c1C(=O)c1c(O)c3c(c(O)c1C2=O)C[C@@](O)(C(=O)CO)C[C@@H]3O[C@H]1C[C@H](N)[C@H](O)[C@H](C)O1 [DOXORUBICIN HYDROCHLORIDE]
pIC50 (KBv200 [43]): 6.43
pIC50 (NCI/ADR-RES [44]): 4.59

COc1cc2c(cc1OC)CN(CCc1ccc(NC(=O)c3cc(OC)c(OC)cc3NC(=O)c3cnc4ccccc4c3)cc1)CC2
inhibition (KBv200 [19]): Active
inhibition (KBv200 [26]): Active
inhibition (KBv200 [31]): Active
